In series [1] the test system is engineered terminal deoxynucleotidyl transferase. Nature of the series: Enzymatic incorporation of nucleoside 5′-triphosphates with amine-masking moieties onto a DNA primer (denaturing PAGE). It is filed as biochemical. The conditions noted are these: 10 minutes at 37° C., buffer containing cobalt chloride, DNA primer with 5′-fluorophore. The procedure: FIG. 11: Enzymatic incorporation of nucleoside 5′-triphosphates with amine-masking moieties. An engineered terminal deoxynucleotidyl transferase was incubated for 10 minutes at 37° C. in an appropriate buffer containing cobalt chloride and a DNA primer with a 5′-fluorophore as well as the following nucleoside 5′-triphosphates: (A) Lane 1: No extension control; Lane 2: N6-benzyl-dATP; Lane 3: N6-benzyl-rATP; Lane 4: N6-methyl-dATP; Lane 5: N6-methyl-rATP; (B) Lane 1: No extension control; Lane 2: 3′-O-acetyl-N4-benzoyl-dCTP; (C) Lane 1: No extension control; Lane 3: N6-benzoyl-dATP; Lane 4: N4-benzoyl-dCTP. Reactions were analyzed by standard denaturing polyacrylamide gel electrophoresis (TBE buffer) and imaged with a fluorescent scanner.

Series [2] can be described thus: Deamination time course in sodium nitrite / sodium acetate pH 5.5, analysed by LC-MS. It is filed as physicochemical. The conditions noted are these: sodium nitrite (700 mM), pH 5.5 (1 M), room temperature; for Extent of deamination (conversion to oxidative deamination product): LC chromatograms at 260 nm.
Method: (A) LC-MS was performed on a Bruker amaZon system, with a Synergi Polar RP column. Solvents were A (20 mM ammonium acetate, pH 4.6) and B (20 mM ammonium acetate, pH 4.6 [5%]/acetonitrile [95%]). A gradient from 5-40% B in 10 minutes was run at 0.5 mL/min. Data is shown as a series of LC chromatograms at 260 nm. The ˜2.6 min peak corresponds to 2′-deoxyadenosine and the peak at ˜1.3 min corresponds to 2′-deoxyinosine (oxidative deamination product). (B) Plot of deamination percent over time. (C) Oxidative deamination reaction shown below converting 2′-deoxyadenosine to 2′deoxyinosine.
Solvents were A (20 mM ammonium acetate, pH 4.6) and B (20 mM ammonium acetate, pH 4.6 [5%]/acetonitrile [95%]). A gradient from 5-40% B in 10 minutes was run at 0.5 mL/min. Data shown as a series of LC chromatograms at two wavelengths for each time point as labeled above. The peak at ˜4.5 min retention time corresponds with 6-azido 2′-deoxyadenosine.
(A) LC-MS was performed on a Bruker amaZon system, with a Synergi Polar RP column. Solvents were A (20 mM ammonium acetate, pH 4.6) and B (20 mM ammonium acetate, pH 4.6 [5%]/acetonitrile [95%]). A gradient from 5-25% B in 10 minutes was run at 0.4 mL/min. Data is shown as a series of LC chromatograms at 260 nm. […] (B) Plot of deamination percent over time. (C) Oxidative deamination reaction shown below converting 2′-deoxycytidine (dC) to 2′-deoxyuridine (dU).
Solvents were A (20 mM ammonium acetate, pH 4.6) and B (20 mM ammonium acetate, pH 4.6 [5%]/acetonitrile [95%]). A gradient from 5-25% B in 10 minutes was run at 0.4 mL/min. […] Data shown as a series of LC chromatograms at 260 nm.

As for `O=C(Nc1ccn([C@H]2C[C@H](O)[C@@H](COP(=O)(O)OP(=O)(O)OP(=O)(O)O)O2)c(=O)n1)c1ccccc1` [N4-benzoyl 2′-deoxycytidine triphosphate], the “Acceptance as substrate by terminal transferase enzyme in a DNA synthesis process” value in series [1] is listed as “accepted as a substrate”.
Turning to `CC(C)=CCNc1ncnc2nc[nH]c12` [N6-dimethylallylamino purine], the “Extent of deamination (conversion to oxidative deamination product)” value (from here on “Extent of deamination”) in series [2] is given as “notable absence of peaks corresponding to dA or dI”.
Still for that read-out and setting: then `Nc1ncnc2nc[nH]c12` [adenine, reference compound], with “occur at an appreciable rate”; and `Nc1nc2nc[nH]c2c(=O)[nH]1` [guanine, reference compound], with “occur at an appreciable rate”.
As to `CC(=O)Nc1ncnc2c1ncn2[C@@H]1O[C@H](CO)[C@@H](O)[C@H]1O` [N6-acetyl A, N6-acetyl adenosine], the “Deacetylation during incubation with nitrite solution” value in series [2] (48 hours) is given as “minor deacetylation”. Further, the “Extent of deamination” value in series [2] is “no deamination product is detected”.
Regarding `Nc1cc[nH]c(=O)n1` [cytosine, reference compound], the “Extent of deamination” value in series [2] is listed as “occur at an appreciable rate”.

The record behind these values is patent publication US11505815B2, “Compositions and methods related to non-templated enzymatic nucleic acid synthesis” (Nuclera Nucleics Ltd., priority 2017, dated 2022).
